The target of series [1] is T1, muscarinic acetylcholine receptor type 2 (Homo sapiens, UniProt P08172).
T1 construct: purchased Eurofins Cerep (SafetyScreen44)
Briefly: SafetyScreen44 radioligand binding (antagonistic radioligand assay). As to conditions: read-out: % Inh (% inhibition of control specific binding). As for the experimental part:
The SafetyScreen44® assay was carried out by Eurofins (Poitiers, France) according to the service-provider’s protocol. CPL500036 (1 µM) was tested against a panel of […] potential off-targets proteins, including G protein-coupled receptors (GPCRs), transporters, ion channels, nuclear receptors kinases and other non-kinase enzymes, by use of a set of the binding assays.
Binding of CPL500036 was calculated as the percent binding inhibition of a radioactively labeled ligand specific for each target. Enzyme inhibition of CPL500036 was calculated as the percent inhibition of the activity of the control enzyme. “No interaction” was denoted if inhibition ≤ 25% of specific binding of the control. Determination of muscarinic acetylcholine receptor (M2) activity induced by CPL500036 (antagonism and agonism) was undertaken in human recombinant CHO cells by measurement of the intracellular cAMP level according to the service-provider’s protocol. IC50 (concentration causing a half-maximal inhibition of specific binding of the control) or EC50 (concentration causing a half-maximal response of specific binding of the control) and the Hill coefficient were determined by non-linear regression analysis of the competition curves generated with mean replicate values using Hill-equation curve fitting with software developed at Cerep (Celle-Lévescault, France).

For a further series, the system named is Beagle dogs. Briefly: In vivo cardiovascular safety, telemetry. Conditions: 1.5 mg/kg, 10 mg/kg or 30 mg/kg, p.o., n = 4, free-base form. An excerpt: Four male Beagle dogs who had been implanted previously with telemetry transmitter devices (Data Sciences, Saint Paul, MN, United States) were used. The number of animals corresponds to the standard approach used for such studies ([Smith et al., 2002]; [Authier et al., 2020]) and includes the accepted study sensitivity and ethics for use of nonrodent species ([ICH S7A Safety Pharmacology Studies for Human Pharmaceuticals, 2001]; [Smith et al., 2002]; [Authier et al., 2020]). The study consisted of four acquisition sessions using a crossover design with dosing intervals of ≥ 48 h. In each experimental session, each dog received (via oral gavage) a different treatment: either vehicle or CPL500036 (1.5 mg/kg, 10 mg/kg or 30 mg/kg). Cardiovascular safety was assessed on arterial blood pressure (systolic, diastolic and mean), heart rate (HR) and electrocardiography (RR interval, PR interval, QRS duration, uncorrected QT and corrected QT (QTc) for heart rate using van de Water correction) acquired continuously for ≥ 2 h before dosing, and for ≥ 24 h post-dose. All parameters were evaluated before and at 13-time points after treatment (15 min, 30 min as well as 1 h, 2 h, 3 h, 4 h, 5 h, 6 h, 8 h,12 h, 16 h, 20 h, and 24 h after dosing).

The values below come from paper PMC9681820, “A PDE10A inhibitor CPL500036 is a novel agent modulating striatal function devoid of most neuroleptic side-effects” (Frontiers in Pharmacology, 2022).

T1 sequence (P08172 whole entry): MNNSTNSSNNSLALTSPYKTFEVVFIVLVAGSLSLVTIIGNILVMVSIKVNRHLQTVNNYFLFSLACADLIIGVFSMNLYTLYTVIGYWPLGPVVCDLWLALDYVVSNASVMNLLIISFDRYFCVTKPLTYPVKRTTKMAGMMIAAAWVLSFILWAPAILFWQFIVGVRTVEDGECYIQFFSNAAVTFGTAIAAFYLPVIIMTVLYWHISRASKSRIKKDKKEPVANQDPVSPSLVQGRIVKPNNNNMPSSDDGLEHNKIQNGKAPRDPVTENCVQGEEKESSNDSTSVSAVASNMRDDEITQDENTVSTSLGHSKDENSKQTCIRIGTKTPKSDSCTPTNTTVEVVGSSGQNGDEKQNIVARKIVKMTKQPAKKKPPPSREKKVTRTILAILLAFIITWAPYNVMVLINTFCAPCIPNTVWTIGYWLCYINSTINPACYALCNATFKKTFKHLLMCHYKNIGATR

As a reminder, the inhibition is the change of the read-out against control, counted positive when it falls. For the compound `Cc1ncc(C)n2nc(-c3ccn4cc(-c5ccccc5)nc4n3)nc12` [CPL500036, 7-[5,8-Dimethyl-(1,2,4)triazolo (1,5-a)pyrazin-2-yl]-2-phenylimidazo (1,2-a) pyrimidine], the inhibition at 1 µM in series [1] is -91.2%. For the same compound, in the series on Beagle dogs, the “electrocardiography parameters (particularly QTcv and QRS duration)” value was “Noticeable alterations in any of the electrocardiography parameters analyzed (particularly QTcv and QRS duration) were not observed”; the heart rate result is given as “significant differences were not seen compared with the vehicle control group”; the “systolic, diastolic and mean blood pressures” value was “Remarkable variations in systolic, diastolic and mean blood pressures were not recorded”.
